Measured values reported in patent publication US20160243062A1, “SYNTHESIS AND GROWTH REGULATORY ACTIVITY OF A PROTOTYPE MEMBER OF A NEW FAMILY OF AMINOTHIOL RADIOPROTECTORS” (WISCONSIN ALUMNI RESEARCH FOUNDATION, priority 2012, published 2016).

Tested on: radiation dermatitis in rat skin
Test: Rat radiation dermatitis assay, topical application before irradiation
Assay type: in vivo
Procedure: To determine if PrC-210 could function as a topical radioprotector that could prevent radiation dermatitis when applied prior to a cancer patient's daily radiotherapy, a rat assay that realistically mimics human radiation dermatitis was created. This assay quantifies the severity of radiation dermatitis in rat skin 13 days after a single radiation dose of 17.33 Gy.
In this study, PrC-210 was applied to rat skin in an ethanol/water delivery vehicle four times in the 2 h before irradiation, and control rats received only topical vehicle before irradiation (FIG. 2). Additional drug/irradiation groups of three rats each received either the alkyl-thiol moiety or the alkyldiamine moiety from PrC-210 in the same delivery vehicle. Following the 17.33 Gy irradiation of a […] patch of dorsal skin on the rats' backs, rats were scored 13 days later.
Molecules were applied to skin in an alcohol/water delivery vehicle prior to receiving a 17.33 Gy radiation dose to the 1.5 cm×3.0 cm skin site. Radiation dermatitis severity (i.e., % of the site covered by scab material) was scored 13 days following irradiation.

How did the “topical radioprotective potency and efficacy compared with thiolated polyamines and other PrC-200 series aminothiols” value (radiodermatitis test groups) turn out when `CNCC(CS)CNC` [PrC-210, 3-(methyl-amino)-2-((methylamino)methyl)propane-l-thiol] was run?
The value was “most potent and most effective topical aminothiol to date”.

What about the “prevention of radiation dermatitis (% of the site covered by scab material)” value (topical in ethanol/water vehicle four times in the 2 h before single 17.33 Gy dose, scored 13 days later) of the same compound?
Its value is “completely prevent radiation dermatitis”.
